Four molecules from US6194399A, “Aryldiamine derivatives useful as antibacterial agents” (Scriptgen Pharmaceuticals, Inc., priority 1999, dated 2001) can be followed below.

≈ marks a conversion by molar mass, not a printed value. Like-named read-outs stand apart in the source and are kept apart here.

Assay [1] relates to wild-type S. aureus. The assay is described as follows: MIC, broth microdilution assay. It counts as cell-based. The note with it: Staphylococcus aureus. The protocol: (§1) The antimicrobial activity of a compound or formulation according to the invention is determined by exposing a culture comprising a bacterial species to different concentrations of the compound or formulation and monitoring the effects on growth relative to a control culture not exposed to the compound. Any method known in the art may be used to assess bacterial growth. Antimicrobial effects are expressed as Minimal Inhibitory Concentration (MIC) and Minimum Bactericidal Concentration (MBC).
(§2) The MIC may be expressed as a range between the concentration at which no growth is observed and the concentration of the dilution which immediately follows.
(§3) Typically, MIC is measured using a broth microdilution assay as follows. Dilution of candidate antimicrobial compounds in culture medium is performed in a sterile, covered 96-well microtiter plate with flat bottom wells (Costar #9017). The final concentrations of the compounds are typically 100, 50, 25, 12.5, 6.25, 3.12, 1.56, 0.78, 0.39, 0.20, 0.10, and 0.05 μg/mL, respectively. Culture medium only (containing no bacteria) is also included as a negative control for each plate. Ampicillin and rifampin are used as positive controls against all bacterial strains in every experiment.
(§4) The overnight culture of a single colony is diluted in sterile medium so that, after inoculation, each well contains approximately 5×10^5CFU/mL. Within 15 minutes of preparation, […] of the adjusted inoculum suspension is added to the microliter plate. Each well is diluted with an equal volume of the antimicrobial compounds or control solution. The inoculated microtiter plate is typically incubated at 35° C. for 16-20 hours. The turbidity of each well is determined by measuring the absorbance at 595 nm using a BioRad Model 3550-UV microplate reader.
(§5) The antimicrobial activities of the compounds of the invention, expressed as MIC and MBC, were determined as described above, using as tester strains wild-type S. aureus, rifampicin-resistant S. aureus, wild-type E. coli, and E. coli cells that had been permeabilized.
(In general: Dilution methods test growth across graded concentrations, often in twofold steps.)

The subject of assay [2] is wild-type E. coli. The assay is described as follows: MIC, broth microdilution assay. The note with it: Escherichia coli. The class given is cell-based. The protocol: as §1, §2, §3, §4, §5
Assay [3] concerns rifampicin-resistant S. aureus. Put plainly: MIC, broth microdilution assay. The note with it: Staphylococcus aureus, read-out: MIC rif^R -S. aureus. It counts as cell-based. Here is the method: as §1, §2, §3, §4, §5
Assay [4] concerns wild-type S. aureus. Put plainly: MBC determination. As to conditions: Staphylococcus aureus. It counts as cell-based. The protocol:
as §1
(§6) The minimum bactericidal concentration (MBC) is defined as the concentration of antimicrobial agent from which no colonies grow on petri plates or in the medium. […] Typically, the wells from a MIC microliter plate are made using a 96-well inoculation grid into a fresh microliter plate containing 100 μL Mueller-Hinton broth per well. The MBC plates are incubated at 37° C. for 16-20 hrs and the MBC values are determined.
as §5

Assay [5] relates to wild-type E. coli. The assay is described as follows: MBC determination. As to conditions: Escherichia coli. It counts as cell-based. The protocol: as §1, §6, §5
The test system of assay [6] is E. coli cells that had been permeabilized. The assay is described as follows: MBC determination. As to conditions: Escherichia coli. The class given is cell-based. The protocol:
as §1, §6, §5

The target of the next assay is human pol II (Homo sapiens, UniProt P24928+P30876). The assay is described as follows: in vitro transcription reaction, RNA polymerase inhibition. It counts as biochemical. The protocol: RNA polymerase inhibition activity of a compound can be detected by including the compound in an in vitro transcription reaction and comparing the level of transcription that occurs in the presence and absence of the compound. The RNA polymerase may be from a bacterial source or, as a control, from an animal source. […] UTP; 400 μM each of ATP, GTP, and CTP; and RNA polymerase. After incubation for 60 minutes at 25° C., the reaction is terminated with 100 μl 10% TCA, which also precipitates the newly transcribed RNA, and incorporation of radioactivity into RNA is quantified.
In vitro and/or in vivo criteria may used to determine specificity. That is, the inhibitory activity of a particular compound towards an animal RNA polymerase may be measured in parallel with a bacterial RNA polymerase.
(§7) The compounds of the invention were included at a range of concentrations in in vitro transcription reactions containing purified RNA polymerase derived from either S. aureus, E. coli, or human, and template DNA comprising a pTaq promoter. The reaction conditions and analytical method are described above.

The target in assay [7] is purified RNA polymerase derived from S. aureus. The description is as above. The class given is biochemical. The protocol:
(§8) RNA polymerase inhibition activity of a compound can be detected by including the compound in an in vitro transcription reaction and comparing the level of transcription that occurs in the presence and absence of the compound. The RNA polymerase may be from a bacterial source or, as a control, from an animal source. A typical transcription reaction (50μl) contains transcription buffer (50 mM Tris-HCl, pH 8.0, 200 mM KCl, 10 mM MgCl2,10 mM DTT and 1.5 μM BSA); 1 μg of DNA template; 4 μM UTP containing 5 μCi of [α-^2-32 P] UTP; 400 μM each of ATP, GTP, and CTP; and RNA polymerase. After incubation for 60 minutes at 25° C., the reaction is terminated with 100 μl 10% TCA, which also precipitates the newly transcribed RNA, and incorporation of radioactivity into RNA is quantified. The IC50 (expressed in μg/ml) is the concentration of a compound that inhibits RNA polymerase activity by 50%.
as §7

In assay [8] the target is purified RNA polymerase derived from E. coli (Escherichia coli, UniProt P0A7Z4+P0A8T7+P0A8V2). The description is as above. It counts as biochemical. Here is the method: as §8, §7
Sequence of purified RNA polymerase derived from E. coli (P0A8V2 whole entry): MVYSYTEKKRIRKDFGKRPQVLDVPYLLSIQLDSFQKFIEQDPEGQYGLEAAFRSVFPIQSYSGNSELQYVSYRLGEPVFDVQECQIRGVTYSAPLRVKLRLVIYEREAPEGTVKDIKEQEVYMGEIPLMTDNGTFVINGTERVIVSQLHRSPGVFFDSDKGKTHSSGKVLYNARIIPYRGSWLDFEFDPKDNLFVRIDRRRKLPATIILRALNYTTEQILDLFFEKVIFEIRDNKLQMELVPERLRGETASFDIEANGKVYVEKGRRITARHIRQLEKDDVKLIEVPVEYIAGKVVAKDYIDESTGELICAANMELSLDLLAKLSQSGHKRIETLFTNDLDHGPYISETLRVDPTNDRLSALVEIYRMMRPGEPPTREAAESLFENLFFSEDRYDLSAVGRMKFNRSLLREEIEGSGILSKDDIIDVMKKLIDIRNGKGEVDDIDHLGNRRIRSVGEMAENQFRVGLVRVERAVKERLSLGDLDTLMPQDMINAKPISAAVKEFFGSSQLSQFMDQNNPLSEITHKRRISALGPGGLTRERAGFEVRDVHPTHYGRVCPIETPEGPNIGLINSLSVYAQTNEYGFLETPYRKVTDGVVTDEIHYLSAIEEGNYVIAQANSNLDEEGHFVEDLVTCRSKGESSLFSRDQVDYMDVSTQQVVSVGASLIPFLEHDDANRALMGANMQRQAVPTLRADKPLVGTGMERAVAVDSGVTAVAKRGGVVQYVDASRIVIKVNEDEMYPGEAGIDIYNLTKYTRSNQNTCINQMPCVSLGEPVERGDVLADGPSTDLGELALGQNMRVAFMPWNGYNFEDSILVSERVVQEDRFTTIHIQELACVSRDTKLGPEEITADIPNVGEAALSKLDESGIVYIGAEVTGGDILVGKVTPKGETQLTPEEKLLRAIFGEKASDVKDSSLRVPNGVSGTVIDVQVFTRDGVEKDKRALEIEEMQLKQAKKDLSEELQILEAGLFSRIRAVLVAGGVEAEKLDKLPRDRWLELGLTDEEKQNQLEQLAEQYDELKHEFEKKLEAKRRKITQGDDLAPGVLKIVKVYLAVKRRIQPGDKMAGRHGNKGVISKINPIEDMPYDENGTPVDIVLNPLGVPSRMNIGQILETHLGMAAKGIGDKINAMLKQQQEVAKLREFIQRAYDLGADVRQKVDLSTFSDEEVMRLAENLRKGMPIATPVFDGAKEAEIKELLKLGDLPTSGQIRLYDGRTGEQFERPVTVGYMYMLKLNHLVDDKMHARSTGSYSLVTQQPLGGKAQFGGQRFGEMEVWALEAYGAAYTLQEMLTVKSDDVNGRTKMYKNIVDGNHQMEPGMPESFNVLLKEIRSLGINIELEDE
Sequence of purified RNA polymerase derived from E. coli (P0A8T7 whole entry): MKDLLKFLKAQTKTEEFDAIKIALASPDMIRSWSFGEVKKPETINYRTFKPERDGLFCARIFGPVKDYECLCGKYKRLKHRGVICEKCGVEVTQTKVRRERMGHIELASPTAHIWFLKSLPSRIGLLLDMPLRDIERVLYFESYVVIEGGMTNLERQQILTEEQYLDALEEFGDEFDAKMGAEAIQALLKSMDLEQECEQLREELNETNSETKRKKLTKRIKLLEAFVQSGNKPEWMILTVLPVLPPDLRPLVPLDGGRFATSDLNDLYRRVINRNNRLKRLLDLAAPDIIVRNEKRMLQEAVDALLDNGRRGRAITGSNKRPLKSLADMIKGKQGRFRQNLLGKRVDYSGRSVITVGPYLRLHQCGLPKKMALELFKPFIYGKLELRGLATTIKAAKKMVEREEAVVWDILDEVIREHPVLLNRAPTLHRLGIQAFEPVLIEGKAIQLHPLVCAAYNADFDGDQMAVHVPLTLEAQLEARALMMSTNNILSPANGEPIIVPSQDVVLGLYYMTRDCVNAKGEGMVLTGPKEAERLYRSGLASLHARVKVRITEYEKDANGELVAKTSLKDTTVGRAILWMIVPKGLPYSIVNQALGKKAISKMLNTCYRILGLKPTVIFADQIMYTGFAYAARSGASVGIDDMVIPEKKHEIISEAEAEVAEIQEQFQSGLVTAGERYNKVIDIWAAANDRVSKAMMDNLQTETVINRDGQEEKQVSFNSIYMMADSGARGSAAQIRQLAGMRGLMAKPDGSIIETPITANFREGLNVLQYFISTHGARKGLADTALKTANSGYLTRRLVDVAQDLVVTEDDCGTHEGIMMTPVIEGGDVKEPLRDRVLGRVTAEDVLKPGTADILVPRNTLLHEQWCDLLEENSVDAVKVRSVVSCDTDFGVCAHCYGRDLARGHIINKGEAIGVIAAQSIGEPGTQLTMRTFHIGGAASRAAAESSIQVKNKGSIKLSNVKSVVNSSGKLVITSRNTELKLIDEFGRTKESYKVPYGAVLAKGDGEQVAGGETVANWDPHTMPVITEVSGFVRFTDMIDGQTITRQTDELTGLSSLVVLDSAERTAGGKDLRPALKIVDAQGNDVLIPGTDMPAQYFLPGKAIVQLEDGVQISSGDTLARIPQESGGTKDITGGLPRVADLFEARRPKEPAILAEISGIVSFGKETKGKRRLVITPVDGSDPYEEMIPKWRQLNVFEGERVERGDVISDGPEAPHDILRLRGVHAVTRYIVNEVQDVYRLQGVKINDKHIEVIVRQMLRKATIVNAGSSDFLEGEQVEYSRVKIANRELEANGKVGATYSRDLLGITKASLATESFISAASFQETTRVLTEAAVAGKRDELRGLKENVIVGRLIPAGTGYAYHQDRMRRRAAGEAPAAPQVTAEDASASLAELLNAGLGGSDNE
Sequence of purified RNA polymerase derived from E. coli (P0A7Z4 whole entry): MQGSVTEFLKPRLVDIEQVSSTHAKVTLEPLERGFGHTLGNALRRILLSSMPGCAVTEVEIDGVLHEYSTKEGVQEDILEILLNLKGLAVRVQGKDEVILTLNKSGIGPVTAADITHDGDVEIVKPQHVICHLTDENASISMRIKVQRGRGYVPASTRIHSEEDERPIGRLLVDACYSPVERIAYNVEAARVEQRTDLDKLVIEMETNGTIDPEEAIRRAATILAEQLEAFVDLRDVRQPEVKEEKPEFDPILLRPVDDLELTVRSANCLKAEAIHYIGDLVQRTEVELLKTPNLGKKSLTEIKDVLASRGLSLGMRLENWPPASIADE
Assay [9] concerns E. coli cells that had been permeabilized. Put plainly: MIC, broth microdilution assay. It counts as cell-based. The note with it: Escherichia coli, read-out: MIC E. coli*. The protocol:
Within 15 minutes of preparation, […] of the adjusted inoculum suspension is added to the microliter plate.

Usually MIC stands for the smallest concentration in the dilution series that meets the test's criterion for growth inhibition. Consider `CC1(C)S[C@@H]2[C@H](NC(=O)[C@H](N)c3ccccc3)C(=O)N2[C@H]1C(=O)O` [Amp, Ampicillin, reference compound], for which the MIC in the assay with wild-type S. aureus [1] was determined as 8 µg/mL (≈ 22.9 µM); against wild-type E. coli [2] it was 2 µg/mL (≈ 5.72 µM); in [3], 4 µg/mL (≈ 11.4 µM).
By MBC is commonly meant the lowest tested concentration that kills the bacteria rather than only halting them. Broadly, the IC50 is the concentration that inhibits the measured activity by half. `NCCNc1ccc([N+](=O)[O-])c(NCCOc2ccccc2)c1` [Compound (A), N^1-(2-aminoethyl)-4-nitro-N^3-(2-phenoxyethyl)-1,3-benzenediamine]: the MBC was found to be 25 µg/mL (≈ 79 µM) in the assay on wild-type S. aureus [4], 50 µg/mL (≈ 158 µM) against wild-type E. coli [5] and 25 µg/mL (≈ 79 µM) in [6]. The values for the minimum inhibitory concentration (MIC) (against wild-type S. aureus [1]; with wild-type E. coli [2]; in assay [3]) were 6 µg/mL (≈ 19 µM), 13 µg/mL (≈ 41.1 µM) and 13 µg/mL (≈ 41.1 µM), respectively. Besides, at human pol II (bacterial (S. aureus, E. coli) versus human RNA polymerase), the “selectivity for bacterial RNA polymerase relative to human RNA polymerase” value is given as “highest degree of selectivity”. In addition, the IC50 on human pol II (pTaq promoter template DNA, 60 minutes at 25° C., read-out: IC50 human pol II (converted)) is 316 µM; in assay [7] (pTaq promoter template DNA, 60 minutes at 25° C., read-out: IC50 S. aureus RNA polymerase (converted)) it was 12.6 µM; in assay [8] (pTaq promoter template DNA, 60 minutes at 25° C., read-out: IC50 E. coli RNA polymerase (converted)), 25.3 µM.
On to `NCCNc1ccc([N+](=O)[O-])c(N2CCN(c3ccc([N+](=O)[O-])cc3)CC2)c1` [Compound (B)], for which the MBC was 8 µg/mL (≈ 20.7 µM) in the assay on wild-type S. aureus [4], 32 µg/mL (≈ 82.8 µM) in the assay on wild-type E. coli [5] and 2 µg/mL (≈ 5.18 µM) in [6]. For the same molecule, the MIC in the assay on wild-type S. aureus [1] amounted to 1 µg/mL (≈ 2.59 µM); with wild-type E. coli [2], 8 µg/mL (≈ 20.7 µM); in assay [3], 2 µg/mL (≈ 5.18 µM); in [9], 4 µg/mL (≈ 10.4 µM). In addition, the IC50 on human pol II is 104 µM; in assay [7], 10.4 µM; in assay [8], 23.3 µM.
`CO[C@H]1/C=C/O[C@@]2(C)Oc3c(C)c(O)c4c(O)c(c(/C=N/N5CCN(C)CC5)c(O)c4c3C2=O)NC(=O)/C(C)=C\C=C\[C@H](C)[C@H](O)[C@@H](C)[C@@H](O)[C@@H](C)[C@H](OC(C)=O)[C@@H]1C` [Rif, rifampin, reference compound]: the MIC was less than 0.03 µg/mL in the assay with wild-type S. aureus [1], 4 µg/mL (≈ 4.86 µM) in the assay with wild-type E. coli [2], greater than 64 µg/mL in assay [3] and less than 0.03 µg/mL in [9].
